Patent publication US20200345701A1, “USE OF STATINS IN OVERCOMING RESISTANCE TO BETA-LACTAM ANTIBIOTICS IN BACTERIAL SPECIES SYNTHETIZING ISOPRENOIDS USING THE MEVALONATE SYNTHETIC PATHWAY” (CONSEJO SUPERIOR DE INVESTIGACIONES CIENTIFICAS (CSIC), priority 2017, published 2020)
Entries after “also recorded” stand apart in the source; their conditions may differ.

How the values were obtained:
MRSA ΔfloA mutant [1] = assay: β-lactam antibiotic sensitivity of MRSA ΔfloA mutant versus WT; type: cell-based, Staphylococcus aureus; settings: antibiotic concentrations that typically inhibit MSSA growth
[2] = test system: Staphylococcus aureus MRSA strain USA300; assay: In vitro MRSA cell growth inhibition (bacterial count CFU/ml), statin or ZA with oxacillin; type: cell-based; settings: for MRSA growth (CFU/ml) with oxacillin plus compound: combination with the β-lactam antibiotic oxacillin
MRSA WT strain = assay: Murine infection model, survival, WT strain; settings: mice infected with WT, 3×10^7 CFU; oxacillin 200 mg/kg/day; three days post-infection
Experimental: (§1) Female BALB/c mice (8-10 weeks old, 16-19 g weight) were purchased (Charles River Laboratories), Mice were housed in polypropylene cages in standardized lighting conditions and had ad libitum access to food and water.
(§2) The S. aureus strains were cultured on BHI medium (18 h, 37° C.). Cells were collected, washed three times with PBS and diluted to OD600 nm=0.05. Viable cell counts were determined by plating inoculum dilutions on TSB agar plates. For survival experiments, cohorts of 10 mice were infected with 150 μl of S. aureus cultures (3×10^7 cells) via intravenous injection. Each strain was used to infect one mouse cohort. Doses of oxacillin (200 mg/kg) alone or in combination with ZA (50 mg/Kg or 20 mg/Kg) were injected intraperitoneally (i.p.) daily for 1-4 days. […] The first dose was administered 30 min after the bacterial inoculation. Infections were allowed to progress until severe infection signs occurred or to a 3-day endpoint. Mice were sacrificed when they met the following criteria: 1) loss of at least 20% body weight, 2) loss of at least 15% body weight and ruffled fur, 3) loss of at least 10% body weight and hunched posture, or 4) 4 days post-infection.

MRSA ΔfloA mutant [3] = settings: mice infected with ΔfloA mutant, 3×10^7 CFU; oxacillin 200 mg/kg/day; three days post-infection
Experimental: as §1, §2

ΔEA4 flotillin variant [4] = type: binding, Staphylococcus aureus
FloA (WT flotillin) = FloA (WT flotillin) (Staphylococcus aureus, UniProt Q99TS3); type: binding; settings: purified WT FloA; sucrose gradient, FloA immunodetection in lipid fraction
ΔMAR flotillin variant [5] = type: binding, Staphylococcus aureus
ΔEA4 flotillin variant [6] = type: binding, Staphylococcus aureus; remark: listed apart in the source
ΔPHB flotillin variant [7] = type: binding, Staphylococcus aureus
ΔMAR flotillin variant [8] = type: binding, Staphylococcus aureus; remark: listed apart in the source
ΔPHB flotillin variant [9] = type: binding, Staphylococcus aureus; remark: listed apart in the source
FloA and PBP2a = FloA and PBP2a oligomerization by sucrose gradient centrifugation; settings: membrane fraction of ZA-treated versus untreated cells
Experimental: FloA oligomerization in S. aureus WT and Δcrt mutant and PBP2a oligomerization were analyzed in sucrose gradient assays. S. aureus cultures were harvested and cells crosslinked with 0.5 mM DSP (dithiobis(succinimidyl propionate)) before cell lysis and membrane fraction purification. Purified membrane fractions (200 μg) solubilized with 0.5% DDM were layered on a 5-40% linear sucrose gradient generated by a Biocomp gradient maker, then centrifuged (Beckman; 100,000 g, 16 h, 4° C.). Fractions (1 ml) were collected from the bottom of the gradient and proteins associated with each fraction were precipitated with 10% trichloroacetic acid (TCA). Protein fractions were dried and resuspended in PBS prior to immunoblot analyses.

PBP2a = type: cell-based; settings: ZA-treated MRSA cells; bands at ~80 kDa
MRSA = type: cell-based, Staphylococcus aureus; settings: β-lactam antibiotics; treated versus untreated MRSA
FloA membrane foci = FloA membrane foci count by fluorescence microscopy; type: cell-based, Staphylococcus aureus; settings: ZA 50 μM
Experimental: Cells from liquid cultures were washed in PBS and resuspended in 0.5 ml 4% paraformaldehyde (6 min, room temperature). Samples were washed twice and resuspended in 0.5 ml PBS. Images were acquired on a Leica DMI6000B microscope equipped with a CRT6000 illumination system, with a HCX PL APO oil immersion objective (100×1.47) and a color camera DFC630FX. Leica Application Suite Advanced Fluorescence
Software was used for linear image processing. The YFP signal was detected (excitation filter 489 nm, emission filter 508 nm). Excitation times were 567 msec. Transmitted light images were taken with 55 msec excitation time.

S. aureus = assay: Growth curves of S. aureus cultures at different ZA concentrations; type: cell-based, Staphylococcus aureus; settings: ZA 50 μM; TSB medium, 36 h, 37° C.

Chain of FloA (WT flotillin) (Q99TS3 whole entry, looked up): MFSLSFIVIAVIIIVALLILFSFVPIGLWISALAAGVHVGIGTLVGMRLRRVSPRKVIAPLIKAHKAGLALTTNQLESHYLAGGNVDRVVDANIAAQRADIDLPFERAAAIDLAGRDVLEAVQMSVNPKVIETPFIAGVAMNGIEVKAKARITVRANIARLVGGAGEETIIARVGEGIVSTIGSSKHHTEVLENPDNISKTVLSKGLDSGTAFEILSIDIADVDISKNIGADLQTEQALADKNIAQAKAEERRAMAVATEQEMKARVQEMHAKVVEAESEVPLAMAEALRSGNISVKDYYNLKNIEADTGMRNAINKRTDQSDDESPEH

Cc1onc(-c2c(F)cccc2Cl)c1C(=O)N[C@@H]1C(=O)N2[C@@H]1SC(C)(C)[C@@H]2C(=O)O [flucoxacillin]
growth / resistance of ΔfloA compared to WT in presence of β-lactam antibiotic (MRSA ΔfloA mutant [1]): severe growth inhibition

COc1cccc(OC)c1C(=O)N[C@@H]1C(=O)N2[C@@H]1SC(C)(C)[C@@H]2C(=O)O [methicillin]
growth / resistance of ΔfloA compared to WT in presence of β-lactam antibiotic (MRSA ΔfloA mutant [1]): severe growth inhibition

CC(C)c1c(C(=O)Nc2ccccc2)c(-c2ccccc2)c(-c2ccc(F)cc2)n1CC[C@@H](O)C[C@@H](O)CC(=O)O [atorvastatin]
MRSA growth (CFU/ml) with oxacillin plus compound [2]: did not alter the MRSA antibiotic-resistant phenotype

Cc1onc(-c2ccccc2)c1C(=O)N[C@@H]1C(=O)N2[C@@H]1SC(C)(C)[C@@H]2C(=O)O [oxacillin]
survival rate (MRSA WT strain): 10%
growth / resistance of ΔfloA compared to WT in presence of β-lactam antibiotic (MRSA ΔfloA mutant [1]): severe growth inhibition
survival rate (MRSA ΔfloA mutant [3]): 70%

CC1(C)S[C@@H]2[C@H](NC(=O)[C@H](N)c3ccccc3)C(=O)N2[C@H]1C(=O)O [ampicillin]
growth / resistance of ΔfloA compared to WT in presence of β-lactam antibiotic (MRSA ΔfloA mutant [1]): comparable resistance

CCC(C)CCCCCCCCCCC(=O)OC[C@H]1O[C@@H](OC(=O)/C(C)=C/C=C/C(C)=C/C=C/C(C)=C/C=C/C=C(C)/C=C/C=C(\C)CCC=C(C)C)[C@H](O)[C@@H](O)[C@@H]1O (stereo partly drawn) [staphyloxanthin]
Kd (ΔEA4 flotillin variant [4]): 9.43 nM
lipid-protein interaction in flotation assay (FloA (WT flotillin)): interacted strongly
Kd (ΔMAR flotillin variant [5]): 12 nM
lipid-protein interaction in flotation assay (ΔEA4 flotillin variant [6]): interacted strongly
lipid-protein interaction in flotation assay (ΔPHB flotillin variant [7]): showed no tendency to interact
lipid-protein interaction in flotation assay (ΔMAR flotillin variant [8]): interacted strongly
Kd (ΔPHB flotillin variant [9]): 943 nM

C=C(CC[C@]12O[C@H](C(=O)O)[C@@](O)(C(=O)O)[C@](C(=O)O)(O1)[C@H](OC(=O)/C=C/[C@@H](C)C[C@@H](C)CC)[C@H]2O)[C@@H](OC(C)=O)[C@H](C)Cc1ccccc1 [ZA, Zaragozic acid]
effect of increasing compound concentration on antibiotic effect of oxacillin ([2]; MRSA cultures, combination with oxacillin): potentiated the antibiotic effect of oxacillin
MRSA growth (CFU/ml) with oxacillin plus compound [2]: inhibited
MRSA growth (CFU/ml) in the presence of compound alone ([2]; without oxacillin): unaltered
oligomerization of flotillin and PBP2a (sucrose gradient) (FloA and PBP2a): reduced oligomerization of flotillin and PBP2a
PBP2a oligomerization (BN-PAGE) (PBP2a): deficient PBP2a oligomerization
antibiotic sensitivity profile of treated MRSA cultures (MRSA): resembled those of the ΔfloA mutant
number of FloA membrane foci (FloA membrane foci): reduced
S. aureus growth (S. aureus): no growth defects; also recorded: did not affect

Cc1onc(-c2c(Cl)cccc2Cl)c1C(=O)N[C@@H]1C(=O)N2[C@@H]1SC(C)(C)[C@@H]2C(=O)O [dicloxacillin]
growth / resistance of ΔfloA compared to WT in presence of β-lactam antibiotic (MRSA ΔfloA mutant [1]): severe growth inhibition

CCOc1ccc2ccccc2c1C(=O)N[C@@H]1C(=O)N2[C@@H]1SC(C)(C)[C@@H]2C(=O)O [nafcillin]
growth / resistance of ΔfloA compared to WT in presence of β-lactam antibiotic (MRSA ΔfloA mutant [1]): severe growth inhibition
